The values below come from patent US20230027985A1, “SUBSTITUTED HYDANTOINAMIDES AS ADAMTS7 ANTAGONISTS” (Bayer Aktiengesellschaft, priority 2019, published 2023).

Usually IC50 stands for the concentration at which inhibition is half-maximal.

For test [1], the target named is T1, Purified recombinant ADAMTS-7 (rat prodomain/human catalytic domain, SEQ ID No. 01 or 02) (Homo sapiens, UniProt Q9UKP4).
T1 construct: rat ADAMTS-7 signal peptide + prodomain (rat 1-217, Q1EHB3) (N); 2xStrep tag (C); 6xHis tag (C); made in house; host or cells: Expi293 cells
T1 sequence (Q9UKP4 237-537): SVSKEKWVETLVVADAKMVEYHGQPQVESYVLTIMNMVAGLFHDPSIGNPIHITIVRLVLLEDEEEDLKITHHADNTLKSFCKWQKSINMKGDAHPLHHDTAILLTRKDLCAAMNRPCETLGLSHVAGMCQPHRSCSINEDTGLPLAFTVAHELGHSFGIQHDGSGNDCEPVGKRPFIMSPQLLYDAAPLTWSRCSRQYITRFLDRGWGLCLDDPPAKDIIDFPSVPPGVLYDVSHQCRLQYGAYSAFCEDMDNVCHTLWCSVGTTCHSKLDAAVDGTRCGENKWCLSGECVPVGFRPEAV
Briefly: Assay for ADAMTS-7 enzymatic activity (FRET substrate cleavage). Type of test: biochemical. As to conditions: FRET substrate SEQ ID No. 11, 120 min at 32° C.; read-out: ADAMTS7-IC50. As to the method:
Purified recombinant ADAMTS-7 (as of SEQ ID No. 01 or SEQ ID No. 02) was diluted in reaction buffer (20 mM HEPES pH 8.0, 150 mM NaCl, 5 mM CaCl2, 0.004% Brij, 10 μM ZnCl2) fora concentration of approximately 20 nM. 25 μl of the solution were transferred into each well of a 384-well white microtiter plate (Greiner Bio-One 781075) and 1 μl test compound solution (modulator/inhibitor dissolved in DMSO, at the corresponding concentration) or pure DMSO as a control were added per well. […] Amino acids […] are derived from Thrombospondin-1 sequence (275-289). An additional carboxyl glutamic acid was added after the QXL520 quencher to increase substrate solubility. The microtiter plate was incubated for 120 min at the temperature of 32° C. The increase of fluorescence intensity was measured in appropriate fluorescence plate reader (e.g. TECAN Ultra) using excitation wavelength of 485 nm and emission wavelength of 520 nm. IC50 values were calculated from percentage of inhibition of ADAMTS-7 activity as a function of test compound concentration.

Test [2] concerns the target T2, ADAMTS4 (Homo sapiens, UniProt O75173).
T2 construct: purchased R&D 4307-AD
T2 sequence (O75173 213-685 limits assumed): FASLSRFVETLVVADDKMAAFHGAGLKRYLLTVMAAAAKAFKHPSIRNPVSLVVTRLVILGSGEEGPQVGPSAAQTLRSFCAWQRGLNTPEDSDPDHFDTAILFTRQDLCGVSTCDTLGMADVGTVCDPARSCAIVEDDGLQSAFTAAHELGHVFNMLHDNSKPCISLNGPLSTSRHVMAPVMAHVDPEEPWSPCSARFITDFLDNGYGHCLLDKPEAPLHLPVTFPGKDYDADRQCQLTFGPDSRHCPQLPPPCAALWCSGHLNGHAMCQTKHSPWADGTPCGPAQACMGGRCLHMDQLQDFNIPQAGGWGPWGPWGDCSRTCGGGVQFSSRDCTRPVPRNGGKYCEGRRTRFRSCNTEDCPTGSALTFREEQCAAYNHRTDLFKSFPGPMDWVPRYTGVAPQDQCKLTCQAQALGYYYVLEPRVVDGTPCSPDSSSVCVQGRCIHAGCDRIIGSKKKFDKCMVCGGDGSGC
Briefly: Selectivity assay for ADAMTS-7 modulators (FRET), ADAMTS4. Type of test: biochemical. As to conditions: 50 nM enzyme (R&D 4307-AD), 1 μM Dabcyl/Edans FRET substrate, 120 min at 32° C. Here is the method: The respective enzyme (see table 2 below) was diluted in reaction buffer (50 mM Tris, 2.5 μM ZnCl2, 0.05% BSA, 0.001% Brij, pH 7.5 for ADAM17; 50 mM Tris 7.5, 150 mM NaCl, 10 mM CaCl2, 0.05% Brij for all other enzymes) to the respective concentration and 25 μl were transferred into each well of a 384-well white microtiter plate (Greiner Bio One 781075). 1 μl test compound solution (dissolved in DMSO, at the corresponding concentration) or pure DMSO as a control was added per well. The enzymatic reaction was initiated by addition of 25 μl of the respective concentration of the respective FRET substrate (see table 2 below) in reaction buffer. The microtiter plate was incubated for 120 min at the temperature of 32° C. The increase of fluorescence intensity was measured in appropriate fluorescence plate reader (e.g. TECAN Ultra) using the respective wavelengths for excitation and emission. IC50 values were calculated from percentage of inhibition of enzyme activity as a function of test compound concentration.

As for `CC(C)(C)C1(CNC(=O)c2cnn(-c3ccc(C(F)(F)F)c(F)c3)n2)NC(=O)NC1=O` (racemic) [Example 2, rac-N-{[4-tert-butyl-2,5-dioxoimidazolidin-4-yl]methyl}-2-[3-fluoro-4-(trifluoromethyl)phenyl]-2H-1,2,3-triazole-4-carboxamide], in test [1], the IC50 stood at 210 nM.

For `CC(C)(C)C1(CNC(=O)c2cnn(-c3cccc(F)c3)n2)NC(=O)NC1=O` (racemic) [Example 4, rac-N-{[4-tert-butyl-2,5-dioxoimidazolidin-4-yl]methyl}-2-(3-fluorophenyl)-2H-1,2,3-triazole-4-carboxamide], the IC50 in test [1] was 260 nM; in test [2] it was 6.6 µM.

`CC(C)(C)C1(CNC(=O)c2cnn(-c3ccc(C(F)(F)F)cc3)n2)NC(=O)NC1=O` (racemic) [Example 6, rac-N-[(4-tert-butyl-2,5-dioxoimidazolidin-4-yl)methyl]-2-[4-(trifluoromethyl)phenyl]-2H-1,2,3-triazole-4-carboxamide]: the IC50 in test [1] stood at 620 nM.

As to `O=C1NC(=O)C(CNC(=O)c2cnn(-c3ccccc3)n2)(C2CCCOC2)N1` (racemic) [Example 7, rac-N-{[2,5-dioxo-4-(tetrahydro-2H-pyran-3-yl)imidazolidin-4-yl]methyl}-2-phenyl-2H-1,2,3-triazole-4-carboxamide], the IC50 in test [1] came to 62 nM; in test [2], 8.5 µM.

Take `O=C1NC(=O)C(CNC(=O)c2cnn(-c3ccccc3)n2)(C2CCOC2)N1` (racemic) [Example 19, rac-N-{[2,5-dioxo-4-(tetrahydrofuran-3-yl)imidazolidin-4-yl]methyl}-2-phenyl-2H-1,2,3-triazole-4-carboxamide]: the IC50 in test [1] was 170 nM; in test [2], 22 µM.

Consider `O=C1NC(=O)C(CNC(=O)c2cnn(-c3ccccc3)n2)(c2ccccn2)N1` (racemic) [Example 20, rac-N-{[2,5-dioxo-4-(pyridin-2-yl)imidazolidin-4-yl]methyl}-2-phenyl-2H-1,2,3-triazole-4-carboxamide], for which the IC50 was determined as 26 nM in test [1] and 4.8 µM in test [2].

With `O=C1NC(=O)C(CNC(=O)c2cnn(-c3ccccc3)n2)(c2ccncc2)N1` (racemic) [Example 21, rac-N-{[2,5-dioxo-4-(pyridin-4-yl)imidazolidin-4-yl]methyl}-2-phenyl-2H-1,2,3-triazole-4-carboxamide], the IC50 is 200 nM in test [1] and 2.8 µM in test [2].

With `O=C1NC(=O)C(CNC(=O)c2cnn(-c3ccc(F)cc3)n2)(c2ccccn2)N1` (racemic) [Example 22, rac-N-{[2,5-dioxo-4-(pyridin-2-yl)imidazolidin-4-yl]methyl}-2-(4-fluorophenyl)-2H-1,2,3-triazole-4-carboxamide], the half-inhibitory concentration (IC50) in test [1] was 10 nM; in test [2] it was 3 µM.

Take `O=C1NC(=O)C(CNC(=O)c2cnn(-c3ccc(F)cc3)n2)(c2cccnc2)N1` (racemic) [Example 23, rac-N-{[2,5-dioxo-4-(pyridin-3-yl)imidazolidin-4-yl]methyl}-2-(4-fluorophenyl)-2H-1,2,3-triazole-4-carboxamide]: the IC50 in test [1] amounted to 30 nM; in test [2] it was 4.5 µM.

Take `O=C1NC(=O)C(CNC(=O)c2cnn(-c3ccc(F)cc3)n2)(c2ccncc2)N1` (racemic) [Example 24, rac-N-{[2,5-dioxo-4-(pyridin-4-yl)imidazolidin-4-yl]methyl}-2-(4-fluorophenyl)-2H-1,2,3-triazole-4-carboxamide]: the IC50 in test [1] was determined as 140 nM; in test [2] it was 2.9 µM.

As for `CC(C)C1(CNC(=O)c2cnn(-c3ccccc3)n2)NC(=O)NC1=O` (racemic) [Example 48, rac-N-[(2,5-dioxo-4-(propan-2-yl)imidazolidin-4-yl)methyl]-2-phenyl-2H-1,2,3-triazole-4-carboxamide], the values for the IC50 in test [1] and in test [2] were 265 nM and 14.5 µM, respectively.

As for `CC(C)(C)C1(CNC(=O)c2cnn(-c3ccccc3)n2)NC(=O)NC1=O` (racemic) [Example 49, rac-[(4-tert-butyl-2,5-dioxoimidazolidin-4-yl)methyl]-2-phenyl-2H-1,2,3-triazole-4-carboxamide], the IC50 in test [1] was 70 nM; in test [2], 15 µM.

Take `O=C1NC(=O)C(CNC(=O)c2cnn(-c3ccccc3)n2)(C2CCCC2)N1` (racemic) [Example 50, rac-N-[(4-cyclopentyl-2,5-dioxoimidazolidin-4-yl)methyl]-2-phenyl-2H-1,2,3-triazole-4-carboxamide]: in test [1], the IC50 was 191 nM.

Take `CCCCC1(CNC(=O)c2cnn(-c3ccccc3)n2)NC(=O)NC1=O` (racemic) [Example 51, rac-N-[(4-butyl-2,5-dioxoimidazolidin-4-yl)methyl]-2-phenyl-2H-1,2,3-triazole-4-carboxamide]: the IC50 was found to be 89 nM in test [1] and 15 µM in test [2].

Take `O=C1NC(=O)C(CNC(=O)c2cnn(-c3ccccc3)n2)(C2CCCCC2)N1` (racemic) [Example 53, rac-N-[(4-cyclohexyl-2,5-dioxoimidazolidin-4-yl)methyl]-2-phenyl-2H-1,2,3-triazole-4-carboxamide]: the half-maximal inhibitory concentration (IC50) in test [1] worked out at 145 nM.

Take `O=C1NC(=O)C(CNC(=O)c2cnn(-c3ccc(F)cc3)n2)(CC2CC2)N1` (racemic) [Example 64, rac-N-[4-(cyclopropylmethyl)-2,5-dioxoimidazolidin-4-yl)methyl]-2-(4-fluorophenyl)-2H-1,2,3-triazole-4-carboxamide]: in test [1], the IC50 was determined as 240 nM.

In the case of `O=C1NC(=O)C(CNC(=O)c2cnn(-c3ccc(F)cc3)n2)(C2CCCC2)N1` (racemic) [Example 66, rac-N-[(4-cyclopentyl-2,5-dioxoimidazolidin-4-yl]methyl]-2-(4-fluorophenyl)-2H-1,2,3-triazole-4-carboxamide], in test [1], the IC50 was 380 nM.

For the compound `O=C1NC(=O)C(CNC(=O)c2cnn(-c3ccc(F)cc3)n2)(c2ncsc2C2CC2)N1` (racemic) [Example 157, rac-N-{[4-(5-cyclopropyl-1,3-thiazol-4-yl)-2,5-dioxoimidazolidin-4-yl]methyl}-2-(4-fluorophenyl)-2H-1,2,3-triazole-4-carboxamide], the IC50 in test [2] was determined as 0.46 µM.

On to `O=C1NC(=O)C(CNC(=O)c2cnn(-c3ccc(F)cc3)n2)(c2ccccn2)N1` (single isomer, unassigned) [Example 138, ent-N-{[2,5-dioxo-4-(pyridin-2-yl)imidazolidin-4-yl]methyl}-2-(4-fluorophenyl)-2H-1,2,3-triazole-4-carboxamide], for which the IC50 in test [1] was found to be 590 nM.

As to `O=C1NC(=O)C(CNC(=O)c2cnn(-c3ccc(Cl)c(F)c3)n2)(C2CCC2)N1` (single isomer, unassigned; ent-2) [Example 89, ent-2-(4-chloro-3-fluorophenyl)-N-[(4-cyclobutyl-2,5-dioxoimidazolidin-4-yl)methyl]-2H-1,2,3-triazole-4-carboxamide], the IC50 in test [2] worked out at 0.975 µM.

As for `C[C@@H](NC(=O)c1cnn(-c2ccccc2)n1)C1(C2CC2)NC(=O)NC1=O` (stereo partly drawn) [Example 39, ent-N-((1R)-1-(4-Cyclopropyl-2,5-dioxoimidazolidin-4-yl)ethyl)-2-phenyl-2H-1,2,3-triazole-4-carboxamide], the IC50 in test [1] turned out to be 710 nM.
